Experiments:
human AT1 receptor = target: T1, human AT1 receptor (Homo sapiens, UniProt P30556); test: Binding assay using human AT1 receptor-expressing CHO-K1 cell membrane fraction ([125I]-angiotensin II); conditions: 22.5 pM [125I]-angiotensin II, 9 μg AT1 membrane, 1 hr room temperature; read-out: AT1 receptor binding inhibitory action (IC50 (nM))
T1 construct: expressed in transfected cells; host or cells: CHO-K1
T1 sequence (P30556 1-359): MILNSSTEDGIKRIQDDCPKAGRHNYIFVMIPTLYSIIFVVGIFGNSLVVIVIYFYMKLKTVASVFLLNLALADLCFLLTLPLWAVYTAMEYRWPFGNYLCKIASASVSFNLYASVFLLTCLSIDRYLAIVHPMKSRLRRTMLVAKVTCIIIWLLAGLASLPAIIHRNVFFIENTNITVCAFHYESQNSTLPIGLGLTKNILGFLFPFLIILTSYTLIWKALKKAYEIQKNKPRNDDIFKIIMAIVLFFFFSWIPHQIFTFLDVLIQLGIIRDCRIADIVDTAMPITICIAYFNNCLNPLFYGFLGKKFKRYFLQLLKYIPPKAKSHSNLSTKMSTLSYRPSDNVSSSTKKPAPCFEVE
Method in brief: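 Radioligand displacement: test compound competed with [125I]-angiotensin II (22.5 pM) on stable CHO-K1 AT1 membrane fraction, 1 hr, room temperature, Tris pH 7.4/MgCl2 buffer ± 0.3 mg/mL BSA. Filtration then scintillation counting; 1 μM CV-11974 defined nonspecific binding. Values are IC50s.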

PPARγ = target: T2, PPARγ (Homo sapiens, UniProt P37231); test: Evaluation of PPARγ activating action (luciferase reporter in PPARγ:RXRα:4ERPP/CHO-K1 cells); format: cell-based; conditions: CHO-K1, 24 h; test compound 10^−6 M; luciferase activity relative to control compound X (1 μM) = 100%, non-administration group = 0%; read-out: PPARγ activating action (activation % (10^−6 M))
T2 construct: expressed in transfected cells; host or cells: CHO-K1
T2 sequence (P37231 1-477 isoform P37231-2): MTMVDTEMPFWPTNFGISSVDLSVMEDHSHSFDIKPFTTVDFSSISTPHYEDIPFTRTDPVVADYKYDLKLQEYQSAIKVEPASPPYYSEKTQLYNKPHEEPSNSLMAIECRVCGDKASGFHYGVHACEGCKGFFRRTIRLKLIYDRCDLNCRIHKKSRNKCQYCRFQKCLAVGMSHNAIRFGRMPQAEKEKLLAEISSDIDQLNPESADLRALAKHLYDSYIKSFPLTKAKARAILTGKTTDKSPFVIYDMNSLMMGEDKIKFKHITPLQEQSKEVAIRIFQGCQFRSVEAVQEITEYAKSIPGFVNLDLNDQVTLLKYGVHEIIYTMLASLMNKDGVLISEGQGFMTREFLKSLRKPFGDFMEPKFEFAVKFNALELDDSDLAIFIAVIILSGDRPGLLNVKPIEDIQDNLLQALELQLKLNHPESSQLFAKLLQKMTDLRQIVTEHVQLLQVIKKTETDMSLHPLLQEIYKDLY
T2 sequence (P19793 1-462 partner): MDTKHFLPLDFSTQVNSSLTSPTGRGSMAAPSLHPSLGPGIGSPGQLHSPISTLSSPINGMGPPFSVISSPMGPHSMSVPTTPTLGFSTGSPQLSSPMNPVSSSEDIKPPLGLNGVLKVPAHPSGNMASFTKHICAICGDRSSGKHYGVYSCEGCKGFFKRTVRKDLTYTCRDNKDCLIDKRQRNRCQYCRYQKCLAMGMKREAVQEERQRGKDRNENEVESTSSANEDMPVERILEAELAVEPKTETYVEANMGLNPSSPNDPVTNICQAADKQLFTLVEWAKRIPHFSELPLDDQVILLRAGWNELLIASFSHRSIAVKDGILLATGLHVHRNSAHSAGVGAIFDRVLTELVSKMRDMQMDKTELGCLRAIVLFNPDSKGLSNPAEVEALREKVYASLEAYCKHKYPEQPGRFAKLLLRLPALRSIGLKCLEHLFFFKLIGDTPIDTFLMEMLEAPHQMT
Method in brief: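 Activity is expressed as percent, where vehicle gives 0% and 1 μM compound X gives 100%, based on luciferase luminescence. Reporter CHO-K1 cells co-expressing PPARγ:RXRα with a 4ERPP-driven luciferase were incubated with test compound for one day at 37 °C in medium with 0.1% fatty acid-free BSA.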

| Compound | IC50 (human AT1 receptor) [nM] | activation at 1 µM (PPARγ) [%] |
| --- | --- | --- |
| CCCCc1nc(C)c(C(O)c2ccccc2)c(=O)n1Cc1ccc(-c2ccccc2-c2noc(=O)[nH]2)cc1 (stereo not drawn) [Example 452, 2-butyl-5-[hydroxy(phenyl)methyl]-6-methyl-3-{[2′-(5-oxo-4,5-dihydro-1,2,4-oxadiazol-3-yl)biphenyl-4-yl]methyl}pyrimidin-4(3H)-one] | 2.1 | 52.9 |
| CCCc1nc(CC)n(-c2ccc(OC(COCC)COCC)cc2)c(=O)c1Cc1ccc(-c2ccccc2-c2noc(=O)[nH]2)cc1 [Example 395, 3-{4-[2-ethoxy-1-(ethoxymethyl)ethoxy]phenyl}-2-ethyl-5-{[2′-(5-oxo-4,5-dihydro-1,2,4-oxadiazol-3-yl)biphenyl-4-yl]methyl}-6-propylpyrimidin-4(3H)-one] | 1.7 | 16 |
| CCCc1nc(CC)n(-c2ccc(OC(C)(C)COC)cc2)c(=O)c1Cc1ccc(-c2ccccc2-c2noc(=O)[nH]2)cc1 [Example 376, 2-ethyl-3-[4-(2-methoxy-1,1-dimethylethoxy)phenyl]-5-{[2′-(5-oxo-4,5-dihydro-1,2,4-oxadiazol-3-yl)biphenyl-4-yl]methyl}-6-propylpyrimidin-4(3H)-one] | 1.7 | 22 |
| CCCc1nc(CC)n(-c2ccc(OC(C)C)nc2)c(=O)c1Cc1ccc(-c2ccccc2-c2noc(=O)[nH]2)cc1 [Example 373, 2-ethyl-3-(6-isopropoxypyridin-3-yl)-5-{[2′-(5-oxo-4,5-dihydro-1,2,4-oxadiazol-3-yl)biphenyl-4-yl]methyl}-6-propylpyrimidin-4(3H)-one] | 2.4 | 48.4 |
| CCCc1nc(C)n(-c2ccc(OC3CCC3)c(F)c2)c(=O)c1Cc1ccc(-c2ccccc2-c2noc(=O)[nH]2)cc1 [Example 318, 3-[4-(cyclobutyloxy)-3-fluorophenyl]-2-methyl-5-{[2′-(5-oxo-4,5-dihydro-1,2,4-oxadiazol-3-yl)biphenyl-4-yl]methyl}-6-propylpyrimidin-4(3H)-one] | 1.8 | 19.2 |
| CCCc1nc(C)c(-c2ccc(OCC3CC3)nc2)c(=O)n1Cc1ccc(-c2ccccc2-c2noc(=O)[nH]2)cc1F [Example 501, 5-[6-(cyclopropylmethoxy)pyridin-3-yl]-3-{[3-fluoro-2′-(5-oxo-4,5-dihydro-1,2,4-oxadiazol-3-yl)biphenyl-4-yl]methyl}-6-methyl-2-propylpyrimidin-4(3H)-one] | 2.6 | 31.8 |
| CCCc1nc(CC)n(-c2ccc(OC(C)(C)C(C)=O)cc2)c(=O)c1Cc1ccc(-c2ccccc2-c2noc(=O)[nH]2)cc1 [Example 445, 3-[4-(1,1-dimethyl-2-oxopropoxy)phenyl]-2-ethyl-5-{[2′-(5-oxo-4,5-dihydro-1,2,4-oxadiazol-3-yl)biphenyl-4-yl]methyl}-6-propylpyrimidin-4 (3H)-one] | 1.2 | 62.9 |
| CCCc1nc(CC)n(-c2ccc(OC3CCC[C@H]3O)cc2)c(=O)c1Cc1ccc(-c2ccccc2-c2noc(=O)[nH]2)cc1 (stereo partly drawn) [Example 381, 2-ethyl-3-(4-{[(2R)-2-hydroxycyclopentyl]oxy}phenyl)-5-{[2′-(5-oxo-4,5-dihydro-1,2,4-oxadiazol-3-yl)biphenyl-4-yl]methyl}-6-propylpyrimidin-4(3H)-one] | 1.2 | 28.2 |
| CCCCc1nc(C)n(CC2CCCCO2)c(=O)c1Cc1ccc(-c2ccccc2-c2noc(=O)[nH]2)cc1 (stereo not drawn) [Example 160, 6-butyl-2-methyl-5-{[2′-(5-oxo-4,5-dihydro-1,2,4-oxadiazol-3-yl)biphenyl-4-yl]methyl}-3-(tetrahydro-2H-pyran-2-ylmethyl)pyrimidin-4(3H)-one] | 1.8 | 61.6 |
| CCCCc1nc(C)n(Cc2ccccc2)c(=O)c1Cc1ccc(-c2ccccc2-c2noc(=O)[nH]2)cc1 [Example 47, 3-benzyl-6-butyl-2-methyl-5-{[2′-(5-oxo-4,5-dihydro-1,2,4-oxadiazol-3-yl)biphenyl-4-yl]methyl}pyrimidin-4(3H) -one] | 1.4 | 61.2 |
| CCCc1nc(C)n(-c2ccc3c(c2)C(=O)CC(C)(C)O3)c(=O)c1Cc1ccc(-c2ccccc2-c2noc(=O)[nH]2)cc1 [Example 145, 3-(2,2-dimethyl-4-oxo-3,4-dihydro-2H-chromen-6-yl)-2-methyl-5-{[2′-(5-oxo-4,5-dihydro-1,2,4-oxadiazol-3-yl)biphenyl-4-yl]methyl}-6-propylpyrimidin-4(3H)-one] | 1.8 | 36.5 |
| CCCc1nc(CC)n(-c2ccc(OC3CCOC(C)C3)cc2)c(=O)c1Cc1ccc(-c2ccccc2-c2noc(=O)[nH]2)cc1 (stereo not drawn) [Example 424, 2-ethyl-3-{4-[(2-methyltetrahydro-2H-pyran-4-yl)oxy]phenyl}-5-{[2′-(5-oxo-4,5-dihydro-1,2,4-oxadiazol-3-yl)biphenyl-4-yl]methyl}-6-propylpyrimidin-4(3H)-one] | 1.3 | 33.5 |
| CCCc1nc(C)n(-c2ccc(OC(C)(C)C(C)=O)cc2)c(=O)c1Cc1ccc(-c2ccccc2-c2noc(=O)[nH]2)cc1 [Example 440, 3-[4-(1,1-dimethyl-2-oxopropoxy)phenyl]-2-methyl-5-{[2′-(5-oxo-4,5-dihydro-1,2,4-oxadiazol-3-yl)biphenyl-4-yl]methyl}-6-propylpyrimidin-4(3H)-one] | 1.6 | 29.9 |
| CCCc1nc(C)c(-c2ccc(OC(C)(C)CO)cc2)c(=O)n1Cc1ccc(-c2ccccc2-c2noc(=O)[nH]2)cc1F [Example 509, 3-{[3-fluoro-2′-(5-oxo-4,5-dihydro-1,2,4-oxadiazol-3-yl)biphenyl-4-yl]methyl}-5-[4-(2-hydroxy-1,1-dimethylethoxy)phenyl]-6-methyl-2-propylpyrimidin-4(3H)-one] | 1.2 | 16.2 |
| CCCCc1nc(C)n(Cc2cccs2)c(=O)c1Cc1ccc(-c2ccccc2-c2noc(=O)[nH]2)cc1 [Example 32, 6-butyl-2-methyl-5-{[2′-(5-oxo-4,5-dihydro-1,2,4-oxadiazol-3-yl)biphenyl-4-yl]methyl}-3-(2-thienylmethyl)pyrimidin-4(3H)-5 one] | 1.3 | 55.6 |
| CCCc1nc(C)n(-c2ccc(OC(C)C)cc2)c(=O)c1Cc1ccc(-c2ccccc2-c2noc(=O)[nH]2)cc1F [Example 141, 5-{[3-fluoro-2′-(5-oxo-4,5-dihydro-1,2,4-oxadiazol-3-yl)biphenyl-4-yl]methyl}-3-(4-isopropoxyphenyl)-2-methyl-6-propylpyrimidin-4(3H)-one] | 1.8 | 38.3 |
| CCCc1nc(C)n(-c2ccc(OC3CCC3)cc2)c(=O)c1Cc1ccc(-c2ccccc2-c2noc(=O)[nH]2)cc1 [Example 255, 3-[4-(cyclobutyloxy)phenyl]-2-methyl-5-{[2′-(5-oxo-4,5-dihydro-1,2,4-oxadiazol-3-yl)biphenyl-4-yl]methyl}-6-propylpyrimidin-4(3H)-one] | 1.7 | 30.5 |
| CCCc1nc(C)n(-c2ccc(OC3CCC(=O)CC3)cc2)c(=O)c1Cc1ccc(-c2ccccc2-c2noc(O)n2)cc1F [Example 346, 5-{[3-fluoro-2′-(5-oxo-4,5-dihydro-1,2,4-oxadiazol-3-yl)biphenyl-4-yl]methyl}-2-methyl-3-{4-[(4-oxocyclohexyl)oxy]phenyl}-6-propylpyrimidin-4(3H)-one] | 1 | 21.8 |

From patent US20100056526A1, “HETEROMONOCYCLIC COMPOUND AND USE THEREOF” (Takeda Pharmaceutical Company Limited, priority 2006, published 2010)
